Measurements from patent US8431524B2, “Peptide antagonist of interleukin-15 activity” (Centro de Ingenieria Genetica y Biotecnologia, priority 2008, dated 2013).
Read-outs that look alike come from different tables or passages of the source. Positions of bridges follow the written chain, without caps; N, C: chain ends. Residues, ends and D or L forms follow the SMILES beside them. Chains are numbered I, II in the order given. No end group written: not given here.

How the values were obtained:
[1] = test system: CTLL-2 cell line; conditions: for IC50: 72 h; for activity relative to the original peptide of WO2006/029578 (fold): IL-15-dependent proliferation of CTLL-2; for inhibitory effect of the peptide (in words): from the IC50 values of Table 1
Experimental: To evaluate the neutralizing capacity of the peptides of the present invention, serial dilutions of these peptides were carried out in 96-well plates (Costar, USA) in a 25 μL volume of RPMI medium (Gibco) supplemented at 10% with calf fetal serum (Gibco). […]
Incubation was carried out for 72 h at 37° C. and 5% CO2. […] MTT is reduced to red formazan by the mitochondrial dehydrogenase of live cells.

[2] = test system: skin graft from a psoriasis patient; assay: Xenotransplant SCID mice model of human psoriasis; format: in vivo; conditions: 10 mg/kg, alternate days for two weeks; for grade of parakeratosis in the psoriatic lesion / keratinocytes' cycles / number of inflammatory cells / thickness of the epidermis: H & E; for severity of the disease: biopsy one week after last injection
Experimental: Two to three months-old SCID mice were transplanted with a skin graft of 1.5 cm×1.5 cm from a psoriasis patient. Three weeks after, mice were randomized and distributed in three groups: placebo, mice treated with peptide SEQ ID No. 12 at 10 mg/kg of body weight and cyclosporin A at 10 mg/kg in alternate days for two weeks. One week after the last injection, mice were sacrificed and a 4 mm biopsy was taken from each xenotransplant. Biopsies were fixed in formalin for paraffin embedding, and were stained with hematoxilin and eosin dyes (H & E).

[3] = test system: KiT225 cell line; assay: IL-15-induced proliferation assay of the Kit225 cell line (MTT); format: cell-based, human; conditions: IL-15 300 pg/mL, serial dilutions of peptide; FIG. 3
Experimental: To evaluate the neutralizing capacity of the peptides of the present invention, serial dilutions of these peptides were carried out in 96-well plates (Costar, USA) in a 25 μL volume of RPMI medium (Gibco) supplemented at 10% with calf fetal serum (Gibco). Previously washed CTLL-2 or KiT225 cells were added at 5×10^3 cells/well and incubated for 30 min, and a saturating amount of 300 pg/mL IL-15 was added per well.
The antagonistic activity of the peptides was also evaluated, by varying the concentration of IL-15 at a fix concentration of 260 μM of each peptide. Incubation was carried out for 72 h at 37° C. and 5% CO2. Proliferation was assessed by using the MTT mitochondrial staining method (Cosman et al., Nature 1984, 312: 768-771). MTT is reduced to red formazan by the mitochondrial dehydrogenase of live cells. The IC50 was determined to each peptide at a IL-15 concentration of 300 pg/mL.

[4] = target: human IL-15Rα (Homo sapiens, UniProt Q13261); assay: Competition ELISA, displacement of binding of IL-15 to IL-15Rα
Sequence of human IL-15Rα (Q13261 31-205 limits assumed): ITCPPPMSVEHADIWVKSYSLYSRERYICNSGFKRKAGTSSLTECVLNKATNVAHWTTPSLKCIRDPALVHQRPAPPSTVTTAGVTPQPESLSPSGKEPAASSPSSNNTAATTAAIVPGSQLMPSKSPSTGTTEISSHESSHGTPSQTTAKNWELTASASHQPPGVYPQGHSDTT
Experimental: Peptide binding to the IL15-Rα was characterized by ELISA. Briefly, 96-well plates were coated with purified IL-15 in phosphate buffered saline (PBS) and blocked with bovine albumin at 1% in PBS. Dilutions of each peptide were added to the wells and plates were incubated for 1 h at 37° C. The plates were washed with PBS-Tween 20 and incubated with an IL-15Rα-Fc for 1 h at 37° C. Plates were washed again with PBS-Tween 20 and further incubated an anti Fc-human IgG-peroxidase conjugate for 1 h at 37° C. After washing, the antigen-antibody reaction was run by adding the substrate and 3,3′,5,5′-Tetramethylbenzidine (TMB), and O.D. was read at 450 nm.

[5] = target: IL-15Rα subunit (Homo sapiens, UniProt Q13261); conditions: IL-15 binding to IL-15Rα; cited from earlier work
Sequence of IL-15Rα subunit (Q13261 31-267): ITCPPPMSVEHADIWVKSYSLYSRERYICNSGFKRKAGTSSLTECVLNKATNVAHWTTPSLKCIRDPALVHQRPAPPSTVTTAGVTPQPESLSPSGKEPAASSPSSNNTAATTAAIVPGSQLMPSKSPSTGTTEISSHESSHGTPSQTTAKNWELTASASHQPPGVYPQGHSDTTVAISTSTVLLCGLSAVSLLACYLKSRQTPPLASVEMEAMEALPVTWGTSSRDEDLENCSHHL

[6] = test system: prostate cancer cell line PC-3; assay: IL-15Rα-induced IL-6 and IL-8 mRNA expression in PC-3 cells (real time RT-PCR); format: cell-based; conditions: peptide 100 μg/mL, IL15-Rα 1 ng/mL
Experimental: The experiment was carried out in 24-well plates by incubating 1.5×10^6 cells with peptides SEQ ID No. 1 and SEQ ID No. 12 at 100 μg/mL and IL15-Rα (1 ng/mL), and also combinations of IL15-Rα and peptides SEQ ID No. 1 and SEQ ID No. 12.
The RNA was isolated by the TriReagent method (Sigma) and analyzed by measuring the O.D. 260/280 nm ratio and Agarose gel electrophoresis. The real time reverse transcription and polymerase chain reaction were carried out by using the Quantitect Reverse Transcription Kit and QuantiTect SYBR Green PCR (QIAGEN) in a Rotor Gene 6000 equipment.

[7] = test system: synovial fluid cells of RA patients; assay: IL-15-mediated TNFα production in synovial fluid cells of RA patients (ELISA); format: cell-based, human; conditions: peptide 50 μg/mL plus IL-15 60 ng/mL, 48 h; heading says peptide as a dimer; FIG. 6
Experimental: After obtaining a written informed consent, synovial fluid from RA patients was extracted and incubated with hyaluronidase at 10 μg per mL of fluid for 45 min at 37° C. Synovial fluid cells were obtained after centrifugation at 1200 rpm for 10 min.
Cells were incubated in 96-well plated at 2×10^5 cells per well with 50 μg/mL of peptide and 60 ng/mL of IL-15 and also a combination of peptide plus IL-15. After incubation for 48 h, supernatants were collected and stored at −70° C. until evaluation. The amount of TNFα was quantified by EL ISA (R&D DTA50).

[8] = test system: CTLL-2 cell line and peripheral blood mononuclear cells (PBMC); conditions: CTLL-2 cell line and PBMC; cited from earlier work

For KATAMKCFLL-NH2 [KATAMKCFLL], which IC50 [1] is on record?
Its IC50 is 130 µM.

Which results are given for CSCC[C@H](NC(=O)[C@H](C)NC(=O)[C@@H](NC(=O)[C@@H](NC(=O)[C@@H](N)CCCCN)C(C)C)[C@@H](C)O)C(=O)N[C@H](C(=O)N[C@@H](CSSC[C@H](NC(=O)[C@@H](NC(=O)[C@H](CCSC)NC(=O)[C@H](C)NC(=O)[C@@H](NC(=O)[C@@H](NC(=O)[C@@H](N)CCCCN)C(C)C)[C@@H](C)O)[C@@H](C)O)C(=O)N[C@@H](Cc1ccccc1)C(=O)N[C@@H](CC(C)C)C(=O)N[C@@H](CC(C)C)C(N)=O)C(=O)N[C@@H](Cc1ccccc1)C(=O)N[C@@H](CC(C)C)C(=O)N[C@@H](CC(C)C)C(N)=O)[C@@H](C)O [SEQ ID No. 12 dimer] (I: H-KVTAMTCFLL-NH2 / II: H-KVTAMTCFLL-NH2; disulfide I:7-II:7 (inferred); N-terminus assumed)?
IC50 [1]: 8 µM; activity relative to the original peptide of WO2006/029578 (fold) [1]: 15; activity of the dimer relative to the monomer (fold) ([1]; dimer linked through the free Cys): seven times more active; grade of parakeratosis in the psoriatic lesion [2]: lowered grade; keratinocytes' cycles [2]: significantly decreased; number of inflammatory cells [2]: significantly decreased; thickness of the epidermis [2]: significant reduction; severity of the disease [2]: reduction in the severity of the disease; inhibitory effect on IL-15-induced proliferation of Kit225 [3]: higher inhibitory effect

For KVAAMKCFLL-NH2 [KVAAMKCFLL], which IC50 [1] is on record?
The IC50 was 130 µM.

For KVTAMECFLL, which “activity relative to the original peptide of WO2006/029578 (fold)” value [1] is on record?
The value was “ten-fold”.

And the “inhibitory effect of the peptide (in words)” value (“inhibitory effect … (in words)” for short) [1]?
Its value is “loss of the inhibitory effect”.

For KVTAMKCFAL-NH2 [KVTAMKCFAL], which IC50 [1] is on record?
The IC50 was 200 µM.

For “KVTAMKCFLL-NH2 [KVTAMKCFLL, reference compound]”, which IC50 [1] is on record?
The IC50 was 130 µM.

For KVTAMKAFLL, which “displacement of binding of IL-15 to IL-15Rα” value ([4]; ELISA, IL-15 coated plate, IL-15Rα-Fc, FIG. 2) is on record?
Its value is “does not displace”.

What about the “inhibitory effect … (in words)” value [1] of the same molecule?
Its value is “loss of the inhibitory effect”.

For KVTAMKSFLL, which “inhibitory effect … (in words)” value [1] is on record?
Its value is “loss of the inhibitory effect”.

Which Kd [5] does the source give for “IL-15: 14-15 kDa cytokine, T cell activating factor” here?
Its Kd is 0.01 nM.

With KVTAMTCFLL-NH2 [KVTAMTCFLL] as the molecule, how does the “IL15-Rα-mediated transcription of IL-8” value ([6]; FIG. 5A) read?
The value was “inhibits transcription”.

And the “IL15-Rα-mediated transcription of IL-6” value ([6]; FIG. 5B)?
The value was “inhibits transcription”.

What about the “capacity to bind to the IL-15Rα” value [4] of the same molecule?
The value was “retains the capacity to bind to the IL-15Rα”.

What about the TNFα secretion [7] of the same molecule?
Its TNFα secretion is “inhibits TNFα secretion”.

What about the IC50 [1] of the same molecule?
The IC50 was 24.6 µM.

And the “activity relative to the original peptide of WO2006/029578 (fold)” value ([1]; listed as Lys-Thr mutant)?
Its value is “five-fold”.

And the “antagonistic activity at varying IL-15 concentration” value ([1]; fixed peptide concentration 260 μM, IL-15 75, 150, 300 pg/mL, FIG. 4)?
The value was “dependence of the antagonistic activity”.

What about the “grade of parakeratosis in the psoriatic lesion” value [2] of the same molecule?
Its value is “lowered grade”.

And the “keratinocytes' cycles” value [2]?
The value was “significantly decreased”.

What about the “number of inflammatory cells” value [2] of the same molecule?
The value was “significantly decreased”.

And the “thickness of the epidermis” value [2]?
Its value is “significant reduction”.

And the “severity of the disease” value [2]?
The value was “reduction in the severity of the disease”.

And the “inhibitory effect on IL-15-induced proliferation of Kit225” value [3]?
Its value is “inhibitory effect depending on the concentration of the peptide”.

For KVTAAKCFLL-NH2 [KVTAAKCFLL], which IC50 [1] is on record?
The IC50 was 130 µM.

For KVTAMTCYLL-NH2 [KVTAMTCYLL], which IC50 [1] is on record?
Its IC50 is 57.7 µM.

For KVTAMKCFLA-NH2 [KVTAMKCFLA], which IC50 [1] is on record?
Its IC50 is 260 µM.

B1: 146B7: Genmab antibody specific for IL-15, targets the region interacting with IL-15Rγ (antibody, chains of the INN, looked up, V domains shown)
VH: EVQLVQSGAEVKKPGESLKISCKVSGYFFTTYWIGWVRQMPGKGLEYMGIIYPGDSDTRYSPSFQGQVTISADKSISTAYLQWSSLKASDTAMYYCARGGNWNCFDYWGQGTLVTVSS
VL: EIVLTQSPGTLSLSPGERATLSCRASQSVSSSYLAWYQQKPGQAPRLLIYGASRRATGIPDRFSGSGSGTDFTLTISRLEPEDFAVYYCQRYGSSHTFGQGTKLEIS
For B1, which “inhibition of IL-15-induced cell proliferation” value [8] is on record?
The value was “inhibit the IL-15-induced cell proliferation”.
